According to patent EP4741383A1, “COMPOUND AND USE THEREOF AS ANTI-CANCER DRUG” (Tyligand Bioscience (Shanghai) Limited, priority 2023, dated 2025):

Key:
Assay type in all cases: biochemical
Laforin = target: T1, Laforin (Homo sapiens, UniProt O95278); test: Tyrosine phosphatase selectivity (pNPP substrate), Laforin; settings: for IC50: Laforin, pNPP substrate; for IC50PTP/IC50SHP2 Laforin: selectivity ratio Laforin over SHP2
T1 construct: made in house; host or cells: E. coli
T1 sequence (O95278 1-331): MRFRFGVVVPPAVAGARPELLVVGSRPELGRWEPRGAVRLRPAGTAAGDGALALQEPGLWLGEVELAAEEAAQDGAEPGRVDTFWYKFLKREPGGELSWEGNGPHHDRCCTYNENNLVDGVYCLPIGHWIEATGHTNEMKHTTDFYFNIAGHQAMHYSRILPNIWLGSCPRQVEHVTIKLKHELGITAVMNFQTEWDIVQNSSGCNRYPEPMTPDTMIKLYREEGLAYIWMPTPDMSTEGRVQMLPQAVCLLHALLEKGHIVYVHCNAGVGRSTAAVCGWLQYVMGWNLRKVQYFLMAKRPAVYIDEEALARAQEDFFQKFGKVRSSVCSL
Procedure: (§1) This experiment evaluated the selectivity of the disclosed compounds against tyrosine phosphatases, including SHP1, HePTP, Laforin, LMWPTP, LYP, PTP1B, PRL2, SSU72, VHR, FAP1, STEP, CDC14A, CD45, MEG2, and PP5, all expressed and purified from E. coli.
(§2) Phosphatase activity was measured using p-nitrophenyl phosphate (pNPP) (Fisher Scientific) as the substrate in 50 mM 3,3-dimethylglutaric acid buffer (pH 7.0, containing 1 mM EDTA), with ionic strength adjusted to 0.15 M with NaCl. […] After 10-60 minutes, the reaction was quenched by adding 20 µL of 5 N NaOH. Wells without enzyme were used as controls for correction. The amount of the product, p-nitrophenol, was determined by measuring the absorbance at 405 nm using a Spectra MAX340 microplate spectrophotometer (Molecular Devices), with a molar extinction coefficient of 18000 M^-1cm^-1.
(§3) Data were analyzed using GraphPad Prism software. Dose-response curves were obtained by fitting data using the nonlinear S-curve regression Dose-response-inhibition equation, and IC50 values were calculated.

PTP1B = target: T2, PTP1B (Homo sapiens, UniProt P18031); test: Tyrosine phosphatase selectivity (pNPP substrate), PTP1B; settings: for IC50: PTP1B, pNPP substrate; for IC50PTP/IC50SHP2 PTP1B: selectivity ratio PTP1B over SHP2
T2 construct: made in house; host or cells: E. coli
T2 sequence (P18031 1-435): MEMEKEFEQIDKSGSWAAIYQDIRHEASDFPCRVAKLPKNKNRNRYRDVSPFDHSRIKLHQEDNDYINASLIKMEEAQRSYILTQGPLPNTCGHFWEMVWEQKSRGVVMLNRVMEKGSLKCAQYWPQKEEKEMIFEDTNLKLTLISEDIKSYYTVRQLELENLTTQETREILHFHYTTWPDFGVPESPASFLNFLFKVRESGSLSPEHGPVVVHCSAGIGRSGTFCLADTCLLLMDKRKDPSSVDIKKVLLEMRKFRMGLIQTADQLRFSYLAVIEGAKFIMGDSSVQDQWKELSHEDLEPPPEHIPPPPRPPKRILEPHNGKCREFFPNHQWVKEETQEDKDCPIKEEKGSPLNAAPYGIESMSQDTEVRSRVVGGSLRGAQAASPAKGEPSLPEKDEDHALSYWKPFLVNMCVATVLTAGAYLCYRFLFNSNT
Procedure: as §1, §2, §3

HePTP = target: T3, HePTP (Homo sapiens, UniProt P35236); test: Tyrosine phosphatase selectivity (pNPP substrate), HePTP; settings: for IC50: HePTP, pNPP substrate; for IC50PTP/IC50SHP2 HePTP: selectivity ratio HePTP over SHP2
T3 construct: made in house; host or cells: E. coli
T3 sequence (P35236 1-360): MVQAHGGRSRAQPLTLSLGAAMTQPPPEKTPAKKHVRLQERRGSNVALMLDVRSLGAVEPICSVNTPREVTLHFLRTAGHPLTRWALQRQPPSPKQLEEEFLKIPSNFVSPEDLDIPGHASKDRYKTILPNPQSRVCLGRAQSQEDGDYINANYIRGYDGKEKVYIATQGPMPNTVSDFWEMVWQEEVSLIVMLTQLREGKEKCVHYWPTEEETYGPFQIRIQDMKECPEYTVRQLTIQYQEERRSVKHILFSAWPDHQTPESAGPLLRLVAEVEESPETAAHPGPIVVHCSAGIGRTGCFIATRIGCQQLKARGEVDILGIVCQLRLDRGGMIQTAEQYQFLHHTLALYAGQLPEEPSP
Procedure: as §1, §2, §3

FAP1 [1] = test: Tyrosine phosphatase selectivity (pNPP substrate), FAP1; settings: selectivity ratio FAP1 over SHP2
Procedure: as §1, §2, §3

FAP1 [2] = target: T4, FAP1 (Homo sapiens, UniProt Q12923); test: as above; settings: FAP1, pNPP substrate
T4 sequence (Q12923 2163-2477): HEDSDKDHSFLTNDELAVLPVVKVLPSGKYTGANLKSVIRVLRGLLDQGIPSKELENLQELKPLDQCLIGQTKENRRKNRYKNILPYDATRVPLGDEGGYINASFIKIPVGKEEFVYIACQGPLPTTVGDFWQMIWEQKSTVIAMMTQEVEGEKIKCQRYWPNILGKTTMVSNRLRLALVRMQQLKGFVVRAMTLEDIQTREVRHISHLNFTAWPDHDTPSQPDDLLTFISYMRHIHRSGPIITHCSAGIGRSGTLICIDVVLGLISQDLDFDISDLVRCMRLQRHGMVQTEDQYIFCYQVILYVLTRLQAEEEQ
Procedure: as §1, §2, §3

SHP1 = target: T5, SHP1 (Homo sapiens, UniProt P29350); test: Tyrosine phosphatase selectivity (pNPP substrate), SHP1; settings: for IC50: SHP1, pNPP substrate; for IC50PTP/IC50SHP2 SHP1: selectivity ratio SHP1 over SHP2
T5 construct: made in house; host or cells: E. coli
T5 sequence (P29350 whole entry): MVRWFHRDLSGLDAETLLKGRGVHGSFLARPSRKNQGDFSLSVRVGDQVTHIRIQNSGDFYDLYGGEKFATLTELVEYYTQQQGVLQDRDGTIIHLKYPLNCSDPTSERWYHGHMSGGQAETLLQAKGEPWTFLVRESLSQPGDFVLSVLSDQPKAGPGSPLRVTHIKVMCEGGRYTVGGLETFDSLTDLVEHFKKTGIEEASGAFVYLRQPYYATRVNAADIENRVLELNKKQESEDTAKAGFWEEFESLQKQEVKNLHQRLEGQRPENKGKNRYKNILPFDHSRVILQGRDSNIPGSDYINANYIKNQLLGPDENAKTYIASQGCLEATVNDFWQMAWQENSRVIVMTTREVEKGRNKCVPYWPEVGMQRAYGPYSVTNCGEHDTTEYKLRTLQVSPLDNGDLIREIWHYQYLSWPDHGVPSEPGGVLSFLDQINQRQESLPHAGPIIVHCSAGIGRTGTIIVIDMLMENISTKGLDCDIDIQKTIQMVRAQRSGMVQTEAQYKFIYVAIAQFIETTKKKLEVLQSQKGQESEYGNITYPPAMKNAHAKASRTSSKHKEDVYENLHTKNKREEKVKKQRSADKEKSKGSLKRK
Procedure: as §1, §2, §3

| Structure (SMILES) | IC50 (Laforin) [nM] | IC50PTP/IC50SHP2 Laforin (Laforin) | IC50 (PTP1B) [nM] | IC50PTP/IC50SHP2 PTP1B (PTP1B) | IC50 (HePTP) [nM] | IC50PTP/IC50SHP2 HePTP (HePTP) | IC50PTP/IC50SHP2 FAP1 (FAP1 [1]) | IC50 (FAP1 [2]) [nM] | IC50 (SHP1) [nM] | IC50PTP/IC50SHP2 SHP1 (SHP1) |
| --- | --- | --- | --- | --- | --- | --- | --- | --- | --- | --- |
| O=C(Nc1ccc(-c2ccsc2)cc1)C(=O)Nc1ccc(-c2cc3cc(F)c(-c4nnn[nH]4)cc3n2C2CCC2)cc1 [Example 4] | > 20000 | 689.7 | 3200 | 110.3 | 4500 | 155.2 | 672.4 | 19500 | 600 | 20.7 |
| CC1(n2c(-c3ccc(NC(=O)C(=O)Nc4ccc(N5CCC6(CCOC6)CC5)cc4)cc3)cc3cc(F)c(-c4nnn[nH]4)cc32)CCC1 [Example 68] | > 25000 | 520.8 | 1500 | 31.3 | 1170 | 29.3 | 11.7 | 560 | 383 | 8.0 |
| O=C(Nc1ccc(-c2cc3cc(F)c(-c4nnn[nH]4)cc3n2C2CCC2)cc1)C(=O)Nc1ccc(N2CCOCC2)cc1 [Example 47] | 610 | 9.6 | 370 | 5.8 | 800 | 12.6 | 24.2 | 1530 | 120 | 1.9 |
| O=C(Nc1ccc(-c2ccsc2)cc1)C(=O)Nc1ccc(-c2cc3cc(F)c(-c4nnn[nH]4)nc3n2C2CCC2)cc1 [Example 132] | > 20000 | 740.7 | 2700 | 100 | 5700 | 211.1 | 500 | 13500 | 600 | 22.2 |
| Cn1cc(-c2ccc(NC(=O)C(=O)Nc3ccc(-c4cc5cc(F)c(-c6noc(=O)[nH]6)cc5n4C4CCC4)cc3)cc2)cn1 [Example 123] | > 100000 | 709.2 | 1200 | 8.5 | 1330 | 9.4 | 51.8 | 7300 | 320 | 2.3 |
| O=C(Nc1ccc(-c2cc3cc(F)c(-c4nnn[nH]4)cc3n2C2CCC2)cc1)C(=O)Nc1ccc(N2CCC3(CCOC3)CC2)cc1 [Example 67] | 6210 | 182 | 390 | 11.4 | 950 | 27.9 | 68.8 | 2340 | 110 | 3.2 |
| O=C(Nc1ccc(-c2ccsc2)cc1)C(=O)Nc1ccc(-c2cc3cnc(-c4nnn[nH]4)nc3n2C2CCC2)cc1 [Example 131] | > 20000 | 769.2 | 4700 | 180.8 | 6100 | 234.6 | 423.1 | 11000 | 800 | 30.8 |
| O=C(Nc1ccc(-c2ccsc2)cc1)C(=O)Nc1ccc(-c2oc3cc(F)c(-c4nnn[nH]4)cc3c2C2CCC2)cc1 [Example 130] | > 20000 | 800 | 11600 | 464 | > 20000 | 800 | 120 | < 3000 | 600 | 24.0 |
| O=C(Nc1ccc(-c2oc3cc(F)c(-c4nnn[nH]4)cc3c2C2CCC2)cc1)C(=O)Nc1ccc(N2CCC3(CCOC3)CC2)cc1 [Example 125] | > 100000 | 1960.8 | 6280 | 123.1 | 35900 | 703.9 | 145.9 | 7440 | 170 | 3.3 |
| Cn1c(-c2cccc(NC(=O)C(=O)Nc3ccc(-c4ccsc4)cc3)c2)c(I)c2cc(C(=O)O)c(O)cc21 [Example 11a-1, reference compound] | 12200 | 112 | 2290 | 21.2 | 1030 | 9.5 | – | – | 800 | 7.4 |
| Cn1cc(-c2ccc(NC(=O)C(=O)Nc3ccc(-c4cc5cc(F)c(-c6nnc(C(F)(F)F)[nH]6)cc5n4C4CCC4)cc3)cc2)cn1 [Example 124] | > 100000 | 139.7 | > 100000 | 139.7 | > 100000 | 139.7 | 139.7 | > 100000 | 5620 | 7.8 |
